Reference: patent US8901072B2, “Glycopeptide and lipoglycopeptide antibiotics with improved solubility” (The Medicines Company, priority 2009, dated 2014)
Converted amounts (≈) assume the structure as drawn.

How the values were obtained:
[1] = Solubility in phosphate buffered saline; type: physicochemical; settings: pH 7.4
Method: To a sample of the material of known mass were added known volumes of phosphate buffered saline until complete dissolution is observed. Suspensions were centrifuged for 5 min at 10000 rpm. […] Upon complete dissolution, the solution is diluted until the final concentration is 0.5 mg/mL to ensure that the material remains soluble over the entire range of concentrations.

S. aureus ATCC 13709 = assay: In vitro antibacterial susceptibility (MIC, broth microdilution); type: cell-based; settings: for MIC against S. aureus ATCC 13709, CAMHB: cation-adjusted Mueller-Hinton broth, 37° C., 18 h; for Antibacterial activity compared with oritavancin 5: deduced from the MIC data of Table 2
Method: Susceptibility of S. aureus strain ATCC13709 to oritavancin (5) and synthesized compounds was determined following the guidelines set by the Clinical and Laboratory Standards Institute (formerly the National Committee for Clinical Laboratory Standards) (M26-A). Compounds were serially diluted two-fold in either DMSO (Oritavancin 5) or in PBS and transferred to cation-adjusted Mueller Hinton broth (CAMHB; Becton Dickinson). 50 μL of compounds diluted in CAMHB was mixed with 100 μL of bacteria diluted in CAMHB in 96-well microtiter plates. The final number of micro-organisms in the assay was 5×10^5 c.f.u. per mL and the final concentration of DMSO in the assay, if present, was 1.25%. All solutions may contain 0.002% Tween as indicated. Assays were set up in duplicate and incubated at 37° C. for 18 h. The concentration of compound that inhibited visible growth was reported as the minimum inhibitory concentration (MIC).

[2] = 10 mM phosphate buffered saline (0.138 M NaCl, 2.7 mM KCl)

## CC(=O)[O-].CNC(CC(C)C)C(=O)NC1C(=O)NC(CC(N)=O)C(=O)NC2C(=O)NC3C(=O)NC(C(=O)NC(C(=O)SCC[N+](C)(C)C)c4cc(O)cc(O)c4-c4cc3ccc4O)C(OC3CC(C)(N)C(O)C(C)O3)c3ccc(c(Cl)c3)Oc3cc2cc(c3OC2OC(CO)C(O)C(O)C2OC2CC(C)(NCc3ccc(-c4ccc(Cl)cc4)cc3)C(O)C(C)O2)Oc2ccc(cc2Cl)C1O (stereo not shown) [98 (acetate salt)]
[1]
  Solubility (mg/mL) PBS: 20 mg/mL

## CC(C)CC(C(=O)NC1C(=O)NC(CC(N)=O)C(=O)NC2C(=O)NC3C(=O)NC(C(=O)NC(C(=O)O)c4cc(O)cc(O)c4-c4cc3ccc4O)C(OC3CC(C)(N)C(O)C(C)O3)c3ccc(c(Cl)c3)Oc3cc2cc(c3OC2OC(CO)C(O)C(O)C2OC2CC(C)(NCc3ccc(-c4ccc(Cl)cc4)cc3)C(O)C(C)O2)Oc2ccc(cc2Cl)C1O)N(C)C(=O)OCOC(=O)CCC(=O)O (stereo not shown) [Compound 7]
[1]; [2]
  Solubility (mg/mL) PBS: <0.5 mg/mL
S. aureus ATCC 13709
  MIC against S. aureus ATCC 13709, CAMHB + 0.002% tween: 0.125 µg/mL
  MIC against S. aureus ATCC 13709, CAMHB + 50% human serum: 0.5 µg/mL
  MIC against S. aureus ATCC 13709, CAMHB + 50% mouse serum: 0.5 µg/mL
  MIC against S. aureus ATCC 13709, CAMHB + 50% rat serum: 0.25 µg/mL
  MIC against S. aureus ATCC 13709, CAMHB: 2 µg/mL (≈ 1.02 µM)
  Antibacterial activity compared with oritavancin 5: within an order of magnitude of that of oritavancin 5

## CC(C)CC(C(=O)NC1C(=O)NC(CC(N)=O)C(=O)NC2C(=O)NC3C(=O)NC(C(=O)NC(C(=O)O)c4cc(O)cc(O)c4-c4cc3ccc4O)C(OC3CC(C)(N)C(O)C(C)O3)c3ccc(c(Cl)c3)Oc3cc2cc(c3OC2OC(CO)C(O)C(O)C2OC2CC(C)(NCc3ccc(-c4ccc(Cl)cc4)cc3)C(O)C(C)O2)Oc2ccc(cc2Cl)C1O)N(C)C(=O)CCC(=O)N(CC(=O)O)CC(=O)O (stereo not shown) [Compound 13]
[1]; [2]
  Solubility (mg/mL) PBS: 5.5 mg/mL (≈ 2740 µM)
S. aureus ATCC 13709
  MIC against S. aureus ATCC 13709, CAMHB + 0.002% tween: 2 µg/mL
  MIC against S. aureus ATCC 13709, CAMHB + 50% human serum: 64 µg/mL
  MIC against S. aureus ATCC 13709, CAMHB + 50% mouse serum: 64 µg/mL
  MIC against S. aureus ATCC 13709, CAMHB + 50% rat serum: 32 µg/mL
  MIC against S. aureus ATCC 13709, CAMHB: 4 µg/mL (≈ 1.99 µM)
  Antibacterial activity compared with oritavancin 5: weaker activities

## CC(C)CC(C(=O)NC1C(=O)NC(CC(N)=O)C(=O)NC2C(=O)NC3C(=O)NC(C(=O)NC(C(=O)O)c4cc(O)cc(O)c4-c4cc3ccc4O)C(OC3CC(C)(N)C(O)C(C)O3)c3ccc(c(Cl)c3)Oc3cc2cc(c3OC2OC(CO)C(O)C(O)C2OC2CC(C)(NCc3ccc(-c4ccc(Cl)cc4)cc3)C(O)C(C)O2)Oc2ccc(cc2Cl)C1O)N(C)C(=O)OCOC(=O)CCC(=O)N(CC(=O)O)CC(=O)O (stereo not shown) [Compound 20]
[1]; [2]
  Solubility (mg/mL) PBS: 5.5 mg/mL (≈ 2640 µM)
S. aureus ATCC 13709
  MIC against S. aureus ATCC 13709, CAMHB + 0.002% tween: 4 µg/mL
  MIC against S. aureus ATCC 13709, CAMHB + 50% human serum: 16 µg/mL
  MIC against S. aureus ATCC 13709, CAMHB + 50% mouse serum: 16 µg/mL
  MIC against S. aureus ATCC 13709, CAMHB + 50% rat serum: 2 µg/mL
  MIC against S. aureus ATCC 13709, CAMHB: 4 µg/mL (≈ 1.92 µM)
  Antibacterial activity compared with oritavancin 5: weaker activities

## CNC(CC(C)C)C(=O)NC1C(=O)NC(CC(N)=O)C(=O)NC2C(=O)NC3C(=O)NC(C(=O)NC(C(=O)NCCCNCCCCNCCCN)c4cc(O)cc(O)c4-c4cc3ccc4O)C(OC3CC(C)(N)C(O)C(C)O3)c3ccc(c(Cl)c3)Oc3cc2cc(c3OC2OC(CO)C(O)C(O)C2OC2CC(C)(NCc3ccc(-c4ccc(Cl)cc4)cc3)C(O)C(C)O2)Oc2ccc(cc2Cl)C1O (stereo not shown) [Compound 24]
[1]; [2]
  Solubility (mg/mL) PBS: ≧100 mg/mL
S. aureus ATCC 13709
  MIC against S. aureus ATCC 13709, CAMHB + 0.002% tween: 0.5 µg/mL
  MIC against S. aureus ATCC 13709, CAMHB + 50% human serum: 1 µg/mL
  MIC against S. aureus ATCC 13709, CAMHB + 50% mouse serum: 0.06 µg/mL
  MIC against S. aureus ATCC 13709, CAMHB + 50% rat serum: 0.06 µg/mL
  MIC against S. aureus ATCC 13709, CAMHB: 1 µg/mL (≈ 0.506 µM)
  Antibacterial activity compared with oritavancin 5: within an order of magnitude of that of oritavancin 5

## CNC(CC(C)C)C(=O)NC1C(=O)NC(CC(N)=O)C(=O)NC2C(=O)NC3C(=O)NC(C(=O)NC(C(=O)OCC(=O)NCCCNCCCCNCCCN)c4cc(O)cc(O)c4-c4cc3ccc4O)C(OC3CC(C)(N)C(O)C(C)O3)c3ccc(c(Cl)c3)Oc3cc2cc(c3OC2OC(CO)C(O)C(O)C2OC2CC(C)(NCc3ccc(-c4ccc(Cl)cc4)cc3)C(O)C(C)O2)Oc2ccc(cc2Cl)C1O (stereo not shown) [Compound 28]
[1]; [2]
  Solubility (mg/mL) PBS: ≧100 mg/mL
S. aureus ATCC 13709
  MIC against S. aureus ATCC 13709, CAMHB + 0.002% tween: 0.125 µg/mL
  MIC against S. aureus ATCC 13709, CAMHB + 50% human serum: 0.25 µg/mL
  MIC against S. aureus ATCC 13709, CAMHB + 50% mouse serum: 0.25 µg/mL
  MIC against S. aureus ATCC 13709, CAMHB + 50% rat serum: 0.063 µg/mL
  MIC against S. aureus ATCC 13709, CAMHB: 2 µg/mL (≈ 0.983 µM)
  Antibacterial activity compared with oritavancin 5: within an order of magnitude of that of oritavancin 5

## CC(C)CC(C(=O)NC1C(=O)NC(CC(N)=O)C(=O)NC2C(=O)NC3C(=O)NC(C(=O)NC(C(=O)O)c4cc(O)cc(O)c4-c4cc3ccc4O)C(OC3CC(C)(N)C(O)C(C)O3)c3ccc(c(Cl)c3)Oc3cc2cc(c3OC2OC(CO)C(O)C(O)C2OC2CC(C)(NCc3ccc(-c4ccc(Cl)cc4)cc3)C(O)C(C)O2)Oc2ccc(cc2Cl)C1O)N(C)C(=O)CNCCCNCCCCNCCCN (stereo not shown) [Compound 36]
S. aureus ATCC 13709
  MIC against S. aureus ATCC 13709, CAMHB + 0.002% tween: 0.06 µg/mL
  MIC against S. aureus ATCC 13709, CAMHB + 50% human serum: 0.125 µg/mL
  MIC against S. aureus ATCC 13709, CAMHB + 50% mouse serum: 0.25 µg/mL
  MIC against S. aureus ATCC 13709, CAMHB + 50% rat serum: 0.125 µg/mL
  MIC against S. aureus ATCC 13709, CAMHB: 1 µg/mL (≈ 0.491 µM)

## CC(C)CC(C(=O)NC1C(=O)NC(CC(N)=O)C(=O)NC2C(=O)NC3C(=O)NC(C(=O)NC(C(=O)O)c4cc(O)cc(O)c4-c4cc3ccc4O)C(OC3CC(C)(N)C(O)C(C)O3)c3ccc(c(Cl)c3)Oc3cc2cc(c3OC2OC(CO)C(O)C(O)C2OC2CC(C)(NCc3ccc(-c4ccc(Cl)cc4)cc3)C(O)C(C)O2)Oc2ccc(cc2Cl)C1O)N(C)C(=O)OCOC(=O)CNCCCNCCCCNCCCN (stereo not shown) [Compound 38]
[1]; [2]
  Solubility (mg/mL) PBS: <0.5 mg/mL
S. aureus ATCC 13709
  MIC against S. aureus ATCC 13709, CAMHB + 0.002% tween: 0.25 µg/mL
  MIC against S. aureus ATCC 13709, CAMHB + 50% human serum: 1 µg/mL
  MIC against S. aureus ATCC 13709, CAMHB + 50% mouse serum: 1 µg/mL
  MIC against S. aureus ATCC 13709, CAMHB + 50% rat serum: 0.5 µg/mL
  MIC against S. aureus ATCC 13709, CAMHB: 2 µg/mL (≈ 0.948 µM)
  Antibacterial activity compared with oritavancin 5: within an order of magnitude of that of oritavancin 5

## CC(C)CC(C(=O)NC1C(=O)NC(CC(N)=O)C(=O)NC2C(=O)NC3C(=O)NC(C(=O)NC(C(=O)O)c4cc(O)cc(O)c4-c4cc3ccc4O)C(OC3CC(C)(N)C(O)C(C)O3)c3ccc(c(Cl)c3)Oc3cc2cc(c3OC2OC(CO)C(O)C(O)C2OC2CC(C)(NCc3ccc(-c4ccc(Cl)cc4)cc3)C(O)C(C)O2)Oc2ccc(cc2Cl)C1O)N(C)C(=O)OCOC(=O)C(N)CCCCN (stereo not shown) [Compound 44]
[1]; [2]
  Solubility (mg/mL) PBS: <0.5 mg/mL
S. aureus ATCC 13709
  MIC against S. aureus ATCC 13709, CAMHB + 0.002% tween: 0.5 µg/mL
  MIC against S. aureus ATCC 13709, CAMHB + 50% human serum: 4 µg/mL
  MIC against S. aureus ATCC 13709, CAMHB + 50% mouse serum: 0.25 µg/mL
  MIC against S. aureus ATCC 13709, CAMHB + 50% rat serum: 0.5 µg/mL
  MIC against S. aureus ATCC 13709, CAMHB: 4 µg/mL (≈ 2 µM)
  Antibacterial activity compared with oritavancin 5: within an order of magnitude of that of oritavancin 5

## CNC(CC(C)C)C(=O)NC1C(=O)NC(CC(N)=O)C(=O)NC2C(=O)NC3C(=O)NC(C(=O)NC(C(=O)SCC[N+](C)(C)C)c4cc(O)cc(O)c4-c4cc3ccc4O)C(OC3CC(C)(N)C(O)C(C)O3)c3ccc(c(Cl)c3)Oc3cc2cc(c3OC2OC(CO)C(O)C(O)C2OC2CC(C)(NCc3ccc(-c4ccc(Cl)cc4)cc3)C(O)C(C)O2)Oc2ccc(cc2Cl)C1O (stereo not shown) [Compound 98]
S. aureus ATCC 13709
  MIC against S. aureus ATCC 13709, CAMHB + 0.002% tween: 0.25 µg/mL
  MIC against S. aureus ATCC 13709, CAMHB + 50% human serum: 0.25 µg/mL
  MIC against S. aureus ATCC 13709, CAMHB + 50% mouse serum: 2 µg/mL
  MIC against S. aureus ATCC 13709, CAMHB + 50% rat serum: 0.125 µg/mL
  MIC against S. aureus ATCC 13709, CAMHB: 1 µg/mL
  Antibacterial activity compared with oritavancin 5: within an order of magnitude of that of oritavancin 5
